Reference: patent US20230000808A1, “COMPOSITIONS AND METHODS EXCLUDING OR WITH REDUCED GLUTAMINE FOR THE TREATMENT OF HEMOGLOBINOPATHIES AND THALASSEMIAS” (AXCELLA HEALTH INC., priority 2019, published 2023)

Assays:
IL-6 [1] = assay: LPS-induced IL-6 secretion in primary human monocyte-derived macrophages (ELISA); type: cell-based; set-up: Donor 1 IL-6 Measurements Mean: unit not given here; conditions: LPS, baseline subtracted
Experimental: (§1) Primary human PMBC derived macrophages were seeded on day 0 at 3.0×10^4 cells per well in 96-well microplates (ThermoFisher) in Dulbecco's Modified Eagle Medium (DMEM) (Gibco) supplemented with penicillin-streptomycin (Hyclone) and 10% heat inactivated fetal bovine serum (HI-FBS) (Atlanta Bio) and incubated overnight at 37° C., 5% CO2. On day 1, cells were washed once with 150 μl per well DPBS (Gibco) and treated with 75 μl of: • a. […] The same medium described above with one amino acid at various concentrations including complete dropout. […] On day 3, the supernatant was collected and immediately frozen in −80° C. freezer. Cells were washed once with 150 μl DPBS and viability was assessed using the WST-8 Cell Proliferation Cytotoxicity Assay (Dojindo). […] Protein levels in supernatant samples were analyzed by ELISA for IL-6 and TNFα using commercially available kits (R&D Systems) according to manufacturer-supplied protocols.

TNFα = assay: LPS-induced TNF-α secretion in primary human monocyte-derived macrophages (ELISA); type: cell-based; conditions: for TNF-α Measurements Mean: LPS, baseline subtracted
Experimental: as §1

IL-6 [2] = assay: Secreted IL-6 in HLMVEC treated with TNF-α (FirePlex); type: cell-based, human; conditions: HLMVEC + 0.5 ng/mL TNF-α, 24 h; amino acids 20x HMDB, Nac/Cit/Car 5 mM as bracketed
Experimental: (§2) Primary Human Lung Microvascular Endothelial Cells (HLMVEC; Lonza) were seeded at 6,000 cells per well in Endothelial Cell Growth Basal Medium-2 (Lonza) supplemented with Fetal Bovine Serum (FBS; Lonza), human EGF (Lonza), human VEGF (Lonza), R3-Insulin-like Growth Factor-1 (Lonza), ascorbic acid (Lonza), hydrocortisone (Lonza), human FGF-beta (Lonza), and gentamicin/amphotericin-b (Lonza) in a 96-well plate (Thermo Fisher). The cells were incubated for 45 minutes at room temperature, then incubated overnight at 37° C./5% CO2.
(§3) Following overnight incubation, cell were washed once with 150 μL of Dulbecco's phosphate buffered saline (DPBS; Gibco), and then treated with Endothelial Basal Medium MCB-131 (amino acid, glucose, sodium pyruvate, and phenol red free; US Biologicals) containing a defined custom amino acid concentration based on physiological concentrations in blood of patients with SCD (thus recapitulating observed metabolic imbalances such as the depletion of certain essential amino acids including arginine and aspartate and enrichment of certain non-essential amino acids including glutamate and asparagine), dialyzed FBS (Hyclone), human EGF (Lonza), human VEGF (Lonza), R3-Insulin-like Growth Factor-1 (Lonza), ascorbic acid (Lonza), hydrocortisone (Lonza), human FGF-beta (Lonza), and gentamicin/amphotericin-b (Lonza), glucose, 10 mM HEPES, sodium pyruvate, and sodium bicarbonate supplemented with one of the following: • a. PBS (vehicle control), • b. 0.5 ng/mL Tumor Necrosis Factor alpha (TNFα) and PBS, or; • c. 0.5 ng/mL TNF-α and amino acid treatments at 20× mean physiological concentrations in plasma based on values published in the Human Metabolome Database (HMDB) in PBS.
Supernatants were analyzed for IL-6 concentrations using a Human Cytokines FirePlex-HT Panel 1 kit (abcam) according to the manufacturer-supplied instructions. Particles were imaged on a high content imager (Molecular Devices), and results were interpolated from a standard curve with FirePlex Analysis Workbench Software (abcam) according manufacturer's recommendations.

HLMVEC = assay: META-rank score, composite of VCAM1, ICAM1 and IL6 in the HLMVEC model; type: cell-based, human; conditions: HLMVEC + TNF-α; lower score = more optimal; 20x HMDB / 5 mM
Experimental: The ability of single amino acids and combinations to simultaneously impact these phenotypes was measured by a META-rank score (Tables 17 and 18). META-rank score is a composite measure that considers the optimal impact on all 3 phenotypes (e.g. decrease VCAM1, ICAM1, and IL6) in the HLMVEC model.

ICAM-1 = ICAM-1 cell integrated intensity in HLMVEC treated with TNF-α (immunofluorescence); type: cell-based, human; conditions: HLMVEC + 0.5 ng/mL TNF-α, 24 h; amino acids 20x HMDB, Nac/Cit/Car 5 mM as bracketed
Experimental: as §2, §3
(§4) After 24 hours of treatment, cells were washed once with 150 μL of DPBS (Gibco), then fixed with 4% paraformaldehyde. Following fixation, cells were stained with anti-ICAM-1 [MEM-111] (mouse IgG2a anti-human; abcam) and anti-VCAM1 [1.4C3] (mouse IgG1, K anti-human; abcam) primary antibodies at 1000×, and 100× dilutions respectively. Cells were then stained with Goat anti-Mouse IgG2a Cross-Adsorbed Secondary Antibody, Alexa Fluor 594 (Invitrogen) and Goat anti-Mouse IgG1 Cross-Adsorbed Secondary Antibody, Alexa Fluor 647 (Invitrogen) secondary antibodies. Nuclei were stained with Hoechst 3342 (Life Technologies).
(§5) Antibody binding was detected by fluorescence microscopy using a high content imager (Molecular Devices). Images were analyzed using MetaXpress 6 software to determine the integrated intensity per cell for each wavelength corresponding to ICAM-1 or VCAM-1.

VCAM-1 = VCAM-1 cell integrated intensity in HLMVEC treated with TNF-α (immunofluorescence); type: cell-based, human; conditions: HLMVEC + 0.5 ng/mL TNF-α, 24 h; amino acids 20x HMDB, Nac/Cit/Car 5 mM as bracketed
Experimental: as §2, §3, §4, §5

CC(C)[C@H](N)C(=O)O [Valine]
Donor 1 IL-6 Measurements Mean (IL-6 [1]; Conc. 234 μM (baseline)): 0 | Donor 1 IL-6 Measurements Mean (IL-6 [1]; Conc. 4684 μM): −85.9843 | Donor 1 IL-6 Measurements Mean (IL-6 [1]; Conc. 11710 μM): −97.25 | Donor 1 IL-6 Measurements Mean (IL-6 [1]; Conc. 23420 μM): −106.268 | Donor 2 IL-6 Measurements Mean (IL-6 [1]; Conc. 234 μM (baseline)): −4.7E−15 | Donor 2 IL-6 Measurements Mean (IL-6 [1]; Conc. 4684 μM): −4.528 | Donor 2 IL-6 Measurements Mean (IL-6 [1]; Conc. 11710 μM): −1.196 | Donor 2 IL-6 Measurements Mean (IL-6 [1]; Conc. 23420 μM): 4.396 | Donor 3 IL-6 Measurements Mean (IL-6 [1]; Conc. 234 μM (baseline)): 4.26E−14 | Donor 3 IL-6 Measurements Mean (IL-6 [1]; Conc. 4684 μM): −30.0609 | Donor 3 IL-6 Measurements Mean (IL-6 [1]; Conc. 11710 μM): −43.8022 | Donor 3 IL-6 Measurements Mean (IL-6 [1]; Conc. 23420 μM): −29.2004 | TNF-α Measurements Mean (TNFα; Donor 1, Conc. 234 μM (baseline)): 0 | TNF-α Measurements Mean (TNFα; Donor 1, Conc. 4684 μM): −40.37 | TNF-α Measurements Mean (TNFα; Donor 1, Conc. 11710 μM): −41.77 | TNF-α Measurements Mean (TNFα; Donor 1, Conc. 23420 μM): −14.98 | TNF-α Measurements Mean (TNFα; Donor 2, Conc. 234 μM (baseline)): −4.7E−15 | TNF-α Measurements Mean (TNFα; Donor 2, Conc. 4684 μM): −0.00221 | TNF-α Measurements Mean (TNFα; Donor 2, Conc. 11710 μM): −0.835 | TNF-α Measurements Mean (TNFα; Donor 2, Conc. 23420 μM): −1.251 | TNF-α Measurements Mean (TNFα; Donor 3, Conc. 234 μM (baseline)): −2.4E−15 | TNF-α Measurements Mean (TNFα; Donor 3, Conc. 4684 μM): 0.126 | TNF-α Measurements Mean (TNFα; Donor 3, Conc. 11710 μM): −2.599 | TNF-α Measurements Mean (TNFα; Donor 3, Conc. 23420 μM): 3.688

NCCC[C@H](N)C(=O)O [Orn]
Secreted IL6 Median (IL-6 [2]): −0.378 | Meta-Rank (Table 18) (HLMVEC): 6.5 | Metarank (Table 17) (HLMVEC): 11 | ICAM-1 Cell Integrated Intensity Median (ICAM-1): −0.197 | VCAM-1 Cell Integrated Intensity Median (VCAM-1): −0.196

N[C@@H](Cc1c[nH]c2ccccc12)C(=O)O [Trp]
Secreted IL6 Median (IL-6 [2]): −0.357 | Meta-Rank (Table 18) (HLMVEC): 24 | Metarank (Table 17) (HLMVEC): 12 | ICAM-1 Cell Integrated Intensity Median (ICAM-1): 0.171 | VCAM-1 Cell Integrated Intensity Median (VCAM-1): 0.162

N[C@@H](CO)C(=O)O [Ser]
Secreted IL6 Median (IL-6 [2]): −0.153 | Meta-Rank (Table 18) (HLMVEC): 19 | Metarank (Table 17) (HLMVEC): 23 | ICAM-1 Cell Integrated Intensity Median (ICAM-1): 0.076 | VCAM-1 Cell Integrated Intensity Median (VCAM-1): 0.139

N=C(N)NCCC[C@H](N)C(=O)O [Arg]
Secreted IL6 Median (IL-6 [2]): −0.224 | Metarank (Table 17) (HLMVEC): 19 | ICAM-1 Cell Integrated Intensity Median (ICAM-1): −0.046 | VCAM-1 Cell Integrated Intensity Median (VCAM-1): −0.001

N[C@@H](Cc1c[nH]cn1)C(=O)O [His]
Secreted IL6 Median (IL-6 [2]): −0.198 | Meta-Rank (Table 18) (HLMVEC): 18.5 | Metarank (Table 17) (HLMVEC): 22 | ICAM-1 Cell Integrated Intensity Median (ICAM-1): 0.084 | VCAM-1 Cell Integrated Intensity Median (VCAM-1): 0.109

CC[C@H](C)[C@H](N)C(=O)O [Isoleucine]
Donor 1 IL-6 Measurements Mean (IL-6 [1]; Conc. 66 μM (baseline)): 0 | Donor 1 IL-6 Measurements Mean (IL-6 [1]; Conc. 1328 μM): 25.98 | Donor 1 IL-6 Measurements Mean (IL-6 [1]; Conc. 3320 μM): −15.8843 | Donor 1 IL-6 Measurements Mean (IL-6 [1]; Conc. 6639 μM): −218.332 | Donor 2 IL-6 Measurements Mean (IL-6 [1]; Conc. 66 μM (baseline)): 0 | Donor 2 IL-6 Measurements Mean (IL-6 [1]; Conc. 1328 μM): −2.318 | Donor 2 IL-6 Measurements Mean (IL-6 [1]; Conc. 3320 μM): 2.305 | Donor 2 IL-6 Measurements Mean (IL-6 [1]; Conc. 6639 μM): −1.774 | Donor 3 IL-6 Measurements Mean (IL-6 [1]; Conc. 66 μM): −6.69 | Donor 3 IL-6 Measurements Mean (IL-6 [1]; Conc. 1328 μM): −28.9897 | Donor 3 IL-6 Measurements Mean (IL-6 [1]; Conc. 3320 μM): 0 | Donor 3 IL-6 Measurements Mean (IL-6 [1]; Conc. 6639 μM): −16.3663 | TNF-α Measurements Mean (TNFα; Donor 1, Conc. 66 μM (baseline)): 0 | TNF-α Measurements Mean (TNFα; Donor 1, Conc. 1328 μM): −42.68 | TNF-α Measurements Mean (TNFα; Donor 1, Conc. 3320 μM): −96.3 | TNF-α Measurements Mean (TNFα; Donor 1, Conc. 6639 μM): −40.95 | TNF-α Measurements Mean (TNFα; Donor 2, Conc. 66 μM (baseline)): 4.74E−15 | TNF-α Measurements Mean (TNFα; Donor 2, Conc. 1328 μM): 2.919 | TNF-α Measurements Mean (TNFα; Donor 2, Conc. 3320 μM): 10.26 | TNF-α Measurements Mean (TNFα; Donor 2, Conc. 6639 μM): 19.26 | effect on LPS-induced TNF-α secretion (TNFα; Donor 2, Two Way ANOVA Dunnett): increased | TNF-α Measurements Mean (TNFα; Donor 3, Conc. 66 μM (baseline)): −2.4E−15 | TNF-α Measurements Mean (TNFα; Donor 3, Conc. 1328 μM): −6.23 | TNF-α Measurements Mean (TNFα; Donor 3, Conc. 3320 μM): 3.309 | TNF-α Measurements Mean (TNFα; Donor 3, Conc. 6639 μM): −1.66
